{"source": "patent US20090029856A1", "about": "“Hinokitiol As A Plant Pesticide” (priority 2007, published 2009)", "key": {"Geotrichum": {"tested_on": "Geotrichum", "assay": "Hinokitiol spiral PDA plates, growth after 2 days", "type": "cell-based", "conditions": "2 days of incubation", "protocol": "(§1) In this method, a potato dextrose agar (PDA) medium is plated with the test solution by means of a spiral plater, which applies the compound in a 2.5-log dilution in a continuous radial concentration gradient. Fungal inoculum in two replicates is then placed along radial lines across the gradient. […] EC50 values were calculated based on these measurements. The fungi evaluated were members of the following families Anamorphic Phyllachoraceae (Colletotrichum acutatum), Anamorphic Sclerotiniaceae (Botrytis cinerea), Mitosporic fungi (Verticillium dahlias; Microphomina sp.), and Oomycota (Phytophtora capsici). Hinokitiol (5 mg/mL) was dissolved in acetone, and acetone alone was also used as a control to check for non-specific inhibition.\n(§2) Another set of hinokitiol spiral PDA plates prepared as above were inoculated with plant pathogenic fungi from the genera Mucor, Rhizoctonia, Geotrichum, Phoma, and Penicillium."}, "Mucor": {"tested_on": "Mucor", "assay": "Hinokitiol spiral PDA plates, growth after 2 days", "type": "cell-based", "conditions": "2 days of incubation", "protocol": "as §1, §2"}, "Penicillium": {"tested_on": "Penicillium", "assay": "Hinokitiol spiral PDA plates, growth after 2 days", "type": "cell-based", "conditions": "2 days of incubation", "protocol": "as §1, §2"}, "Phoma": {"tested_on": "Phoma", "assay": "Hinokitiol spiral PDA plates, growth after 2 days", "type": "cell-based", "conditions": "2 days of incubation", "protocol": "as §1, §2"}, "Rhizoctonia": {"tested_on": "Rhizoctonia", "assay": "Hinokitiol spiral PDA plates, growth after 2 days", "type": "cell-based", "conditions": "2 days of incubation", "protocol": "as §1, §2"}, "[1]": {"tested_on": "grey mold (Botrytis cinerea)", "assay": "In vivo greenhouse test on green bell pepper (Capsicum annuum) against grey mold", "conditions": "for Average (mean) disease rating, 2 days / Average (mean) disease rating, 3 days / Average (mean) disease rating, 7 days: mean of 3 replicates; for rating at day 3 / rating at day 7 / rating at day 2: single replicates", "protocol": "To further test the inhibitory effect of hinokitiol on grey mold (Botrytis cinerea), an in vivo test on green bell pepper (Capsicum annuum) was conducted in a greenhouse. Pepper plants at a 6-true-leaf growth stage were sprayed with hinokitiol in 50% ethanol. The stock solution (5 mg/mL) was prepared in 97% ethanol, and diluted to following concentrations: 0, 0.01, 0.1 mg/mL. To compare the efficacy of hinokitiol in an alcohol-free solution, a treatment with 0.1 mg/mL of hinokitiol in water was included in this study. Pepper plants with no treatment were used as controls. All treatments were carried out in 3 replicates. After treatment with hinokitiol, the leaf surfaces were allowed to dry under the growth lights, after which the plants were inoculated with a B. cinerea spore solution containing 2×10^6 spores per mL. Inoculated plants were incubated in the dark in a covered flat at 22° C. […] Symptoms were rated on a scale of 0-5; 0 indicating no lesions on leaves, and 5 indicating severe rotting/dead plant."}, "[2]": {"tested_on": "Lactuca sativa (lettuce) seeds", "assay": "96-well seed germination inhibition screen", "type": "in vivo", "conditions": "single lettuce seed per well, 50 μL solution, 5× dilution series", "protocol": "Numerous natural compounds were screened for their ability to inhibit the germination of dicot (broadleaved weed) seeds. A single seed of Lactuca sativa (lettuce) was placed in each well of a 96-well plate followed by 50 μL of a solution of each compound in a stepwise (5×) dilution series from 25% to 0%. Germination was monitored daily. Based on this screening study, the threshold value for hinokitiol to inhibit germination of seeds was determined at 0.32 mg/L."}, "[3]": {"tested_on": "Lactuca sativa (lettuce) seedlings", "assay": "High-throughput 96-well post-emergence herbicide assay", "type": "in vivo", "protocol": "A high-throughput 96-well assay was used to test the efficacy of hinokitiol as a post-emergence, non-selective herbicide. Seedlings of Lactuca sativa (lettuce) were grown in 96-well plates under continuous light. Hinokitiol was added on the one-week old seedlings at a 5×-dilution series from 1 to 0 mg/mL, and the minimum concentration needed for killing the seedling was recorded the next day."}, "[4]": {"tested_on": "spurge, white clover, annual bluegrass and crab grass", "assay": "Field study of herbicidal effect, % weed control", "type": "in vivo", "protocol": "A hinokitiol formulation containing 32.4% of hinokitiol by weight was tested in a field study. The formulation also contained dispersing agent, water and emulsifier. The two concentrations tested contained 5% and 0.5% hinokitiol (w/w), and the spraying volume was 100 gallons per acre. Three replicate 1-square-foot plots were sprayed with the appropriate solutions, and the % weed control in each plot was recorded at 3, 7, 14 and 20 days after treatment. The main weeds in this study were spurge, white clover, annual bluegrass and crab grass."}, "Botrytis cinerea (BOT)": {"tested_on": "Botrytis cinerea (BOT)", "assay": "Spiral plating method, growth inhibition", "type": "cell-based", "conditions": "B. cinerea", "protocol": "(§3) The spiral plating method was used to deposit the fungicides on PDA and TSA plates with exponential logarithmic decrease of product concentration from the centre to the edge of the plate. The plates were left standing for four hours and inoculated with the fungus and bacteria. There were four repetitions of the same microorganism done per plate and there was one replica of each plate.\n(§4) The plates were cultured for 3 days before measurements of growth were taken. The ‘distance of inhibition’ indicates the length of the zone with no growth, measured from center edge of the agar, the ‘colony width ratio’ indicates the ratio of the width of growth measured at the zero concentration and width at the highest concentration with growth."}, "[5]": {"tested_on": "Erwinia carotovora (ERWC)", "assay": "Spiral plating method, growth inhibition", "type": "cell-based", "conditions": "E. carotovora; average distance of inhibition / 28 mm × 100", "protocol": "as §3, §4"}, "Fusarium sp (FUSM)": {"tested_on": "Fusarium sp (FUSM)", "assay": "Spiral plating method, growth inhibition", "type": "cell-based", "conditions": "average distance of inhibition / 28 mm × 100", "protocol": "as §3, §4"}, "[6]": {"tested_on": "Monilinia fructicola (MON)", "assay": "Spiral plating method, growth inhibition", "type": "cell-based", "conditions": "M. fructicola; average distance of inhibition / 28 mm × 100", "protocol": "as §3, §4"}, "[7]": {"tested_on": "Pseudomonas viridilivida (PSVI)", "assay": "Spiral plating method, growth inhibition", "type": "cell-based", "conditions": "P. viridilivida", "protocol": "as §3, §4"}, "[8]": {"tested_on": "Xanthomonas campestris (X-CAM)", "assay": "Spiral plating method, growth inhibition", "type": "cell-based", "conditions": "average distance of inhibition / 28 mm × 100", "protocol": "as §3, §4"}, "[9]": {"conditions": "0.01 mg/mL in 50% ethanol, scale 0-5"}, "[10]": {"conditions": "0.1 mg/mL in 50% ethanol, scale 0-5"}}, "note": "Where “and” joins values, the source holds several entries; their conditions need not be identical. Identical values can stand only once."}
{"smiles": "CC(C)c1cccc(=O)c(O)c1", "note": "[Hinokitiol, 4-isopropyl tropolone]", "values": [{"measurement": "inhibition of growth", "setting": "Geotrichum", "value": "complete inhibition"}, {"measurement": "inhibition of growth", "setting": "Mucor", "value": "complete inhibition"}, {"measurement": "inhibition of growth", "setting": "Penicillium", "value": "complete inhibition"}, {"measurement": "inhibition of growth", "setting": "Phoma", "value": "complete inhibition"}, {"measurement": "inhibition of growth", "setting": "Rhizoctonia", "value": "complete inhibition"}, {"measurement": "Average (mean) disease rating, 2 days", "setting": "[1]; 0.01 mg/mL EtOH, scale 0-5", "value": 1.7, "unit": "a"}, {"measurement": "Average (mean) disease rating, 3 days", "setting": "[1]; 0.01 mg/mL EtOH, scale 0-5", "value": 2.7, "unit": "ab"}, {"measurement": "Average (mean) disease rating, 7 days", "setting": "[1]; 0.01 mg/mL EtOH, scale 0-5", "value": 3.0, "unit": "ab"}, {"measurement": "rating at day 3", "setting": "[1]; [9]", "value": "4 and 3 and 1"}, {"measurement": "rating at day 7", "setting": "[1]; [9]", "value": "5 and 3 and 1"}, {"measurement": "rating at day 2", "setting": "[1]; 0.01 mg/mL in 50% ethanol, scale 0-5 (0 no lesions, 5 severe rotting/dead plant)", "value": "2 (2×) and 1"}, {"measurement": "Average (mean) disease rating, 2 days", "setting": "[1]; 0.1 mg/mL EtOH, scale 0-5", "value": 1.7, "unit": "a"}, {"measurement": "Average (mean) disease rating, 3 days", "setting": "[1]; 0.1 mg/mL EtOH, scale 0-5", "value": 2.7, "unit": "ab"}, {"measurement": "Average (mean) disease rating, 7 days", "setting": "[1]; 0.1 mg/mL EtOH, scale 0-5", "value": 4.0, "unit": "ab"}, {"measurement": "Average (mean) disease rating, 2 days", "setting": "[1]; 0.1 mg/mL H2O, scale 0-5", "value": 0.3, "unit": "b"}, {"measurement": "Average (mean) disease rating, 3 days", "setting": "[1]; 0.1 mg/mL H2O, scale 0-5", "value": 0.7, "unit": "b"}, {"measurement": "Average (mean) disease rating, 7 days", "setting": "[1]; 0.1 mg/mL H2O, scale 0-5", "value": 2.3, "unit": "b"}, {"measurement": "rating at day 2", "setting": "[1]; [10]", "value": "2 (2×) and 1"}, {"measurement": "rating at day 3", "setting": "[1]; [10]", "value": "3 (2×) and 2"}, {"measurement": "rating at day 7", "setting": "[1]; [10]", "value": "5 (2×) and 2"}, {"measurement": "rating at day 2", "setting": "[1]; 0.1 mg/mL in water, scale 0-5", "value": "0 (2×) and 1"}, {"measurement": "rating at day 3", "setting": "[1]; 0.1 mg/mL in water, scale 0-5", "value": "0 and 1 (2×)"}, {"measurement": "rating at day 7", "setting": "[1]; 0.1 mg/mL in water, scale 0-5", "value": "1 and 2 and 4"}, {"measurement": "incidence of B. cinerea compared with untreated control pepper plants", "setting": "[1]; 0.1 mg/mL water", "value": "significantly lower"}, {"measurement": "disease outbreak and final disease incidence compared with untreated control", "setting": "[1]; dissolved in ethanol at 0.01 and 0.1 mg/mL", "value": "postponed the disease outbreak but the final disease incidence was not significantly different from the untreated control"}, {"measurement": "threshold value to inhibit germination of seeds", "setting": "[2]", "value": 0.32, "unit": "mg/L"}, {"measurement": "effect on lettuce seedlings", "setting": "[3]; concentration of 8 mg/L", "value": "not harmful to the plant"}, {"measurement": "minimum concentration needed for killing the seedling", "setting": "[3]; one-week old lettuce seedlings, recorded the next day", "value": 40, "unit": "mg/L"}, {"measurement": "% weed control", "setting": "[4]; 0.5% hinokitiol (w/w), 3 DAYS", "value": 3.3, "unit": "%"}, {"measurement": "% weed control", "setting": "[4]; 0.5% hinokitiol (w/w), 7 DAYS", "value": 3.7, "unit": "%"}, {"measurement": "% weed control", "setting": "[4]; 0.5% hinokitiol (w/w), 14 DAYS", "value": 1.7, "unit": "%"}, {"measurement": "% weed control", "setting": "[4]; 0.5% hinokitiol (w/w), 20 DAYS", "value": 3.0, "unit": "%"}, {"measurement": "% weed control", "setting": "[4]; 5.0% hinokitiol (w/w), 7 DAYS", "value": 90.3, "unit": "%"}, {"measurement": "% weed control", "setting": "[4]; 5.0% hinokitiol (w/w), 14 DAYS", "value": 88.3, "unit": "%"}, {"measurement": "% weed control", "setting": "[4]; 5.0% hinokitiol (w/w), 20 DAYS", "value": 83.7, "unit": "%"}, {"measurement": "% weed control", "setting": "[4]; 5.0% hinokitiol (w/w), 100 gallons per acre, 3 DAYS", "value": 86.7, "unit": "%"}, {"measurement": "weeds controlled", "setting": "[4]; formulation containing 5% (w/w) hinokitiol, one week after spraying", "value": "more than 90%"}, {"measurement": "herbicidal effect on weeds", "setting": "[4]; same solution at 10× lower concentration", "value": "negligible effect"}, {"measurement": "inhibition of growth", "setting": "Botrytis cinerea (BOT)", "value": "did not inhibit"}, {"measurement": "% inhibition of growth", "setting": "[5]", "value": 62, "unit": "%"}, {"measurement": "% inhibition of growth", "setting": "Fusarium sp (FUSM)", "value": 32, "unit": "%"}, {"measurement": "% inhibition of growth", "setting": "[6]", "value": 48, "unit": "%"}, {"measurement": "inhibition of growth", "setting": "[7]", "value": "did not inhibit"}, {"measurement": "% inhibition of growth", "setting": "[8]", "value": 83, "unit": "%"}]}
